Data: article PMC13266999, “Designing Antibiotics with Inherent Resistance to Efflux as a Strategy to Revive Discovery against Multidrug-Resistant Pathogens” (Journal of Medicinal Chemistry, 2026)
≈ marks a conversion by molar mass, not a printed value. Where two headings read alike, the source gives them in different places.

Key:
S. aureus [1] = assay: Mutation frequency and agar MIC; type: cell-based
Method: (§1) Mutation frequencies were performed on solid media at supra-inhibitory concentrations. First, the agar MIC was performed to account for any issues in solubility of compounds in solid media. Agar plates were prepared with 2-fold dilutions of compound.
(§2) For the mutation frequency assay, bacteria from an overnight culture were grown to mid exponential phase in liquid broth, then 100 μL was spread onto an agar plate containing compound at concentrations above the agar MIC. A Miles-Misra was also conducted on an antibiotic-free agar plate to determine the CFU/mL of the starting population. […] The mutation frequency was calculated by dividing the number of colonies on supra inhibitory con-centration plates by the starting population.

A. baumannii = assay: Mutation frequency and agar MIC; type: cell-based; details: A118
Method: as §1, §2

E. coli = assay: Mutation frequency and agar MIC; type: cell-based; details: NCTC 12241
Method: as §1, §2

[2] = molecular target: T1, GyrA S84L mutant DNA gyrase (Staphylococcus aureus, UniProt P0A0K8+P20831, S84L); assay: DNA gyrase supercoiling inhibition assay; type: biochemical, S. aureus
T1 construct: purchased Inspiralis Ltd. (Norwich, UK)
Method: (§3) Gyrase inhibition was determined through biochemical assay kits from Inspiralis Ltd. (Norwich, UK), according to manufacturer’s instructions, and as described previously. Briefly, 1U of enzyme was incubated with 0.5 μg of relaxed […] DNA in the presence of compound in 1% DMSO for 30 min at 37 °C. A control reaction contained no compound but still contained 1% DMSO. The reactions were stopped through Stop Buffer addition and the DNA separated through addition of chloroform/iso-amyl alcohol (24;1). Samples were run on a 1% agarose gel at 75 V for 2 h, which was then stained with 1 μg/mL ethidium bromide and visualized using a NuGenius gel imager (Syngene). The intensity of the supercoiled DNA band was quantified using Syngene software, and the inhibition of the supercoiling of the DNA by the compounds was calculated.

WT DNA gyrase = molecular target: T2, WT DNA gyrase (Staphylococcus aureus, UniProt P0A0K8+P20831); assay: DNA gyrase supercoiling inhibition assay; type: biochemical, S. aureus
T2 construct: purchased Inspiralis Ltd. (Norwich, UK)
Method: as §3

S. aureus [3] = assay: MIC (microbroth dilution); type: cell-based, Staphylococcus aureus; details: for MIC: read-out: MIC
How it was run: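 Overnight stationary-phase cultures back-diluted and tested by broth microdilution with 2-fold compound series. MIC is lowest concentration with no visible growth, with OD600 also read. Separate runs included polymyxin B nonapeptide at 30 μg/mL final as outer-membrane permeabilizer.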

Q: What does the source list for `Cc1cc(C)nc(N[C@@H]2CCN(c3c(F)cc4c(=O)c(C(=O)O)cn5c4c3OC[C@@H]5C)C2)n1` [Compound 50, (S)-10-((R)-3-((4,6-Dimethylpyrimidin-2-yl)amino)pyrrolidin-1-yl)-9-fluoro-3-methyl-7-oxo-2,3-dihydro-7H-[1,4]oxazino[2,3,4-ij]quinoline-6-carboxylic acid]?
A: Agar MIC (S. aureus [1]; ATCC 9144): 0.03 µg/mL; Agar MIC (S. aureus [1]; NCTC 13616): 0.5 µg/mL; Agar MIC (A. baumannii): 0.25 µg/mL; Agar MIC (E. coli): 0.25 µg/mL; IC50 [2]: 8.38 µM; IC50 (WT DNA gyrase): 5.56 µM; fold improvement in activity compared to 46 (S. aureus [3]): 2–8 fold; fold difference in MIC, SA-1199B vs SA-1199 (S. aureus [3]; NorA-overexpressing vs WT): no difference; MIC (S. aureus [3]; Staphylococcus aureus, 1199, + 4% albumin): 0.06 µg/mL; MIC (S. aureus [3]; Staphylococcus aureus, 1199b, + 4% albumin): 0.125 µg/mL; MIC (S. aureus [3]; Staphylococcus aureus, ATCC6538P, ATCC 6538P): 0.03 µg/mL (≈ 0.0662 µM); MIC (S. aureus [3]; Staphylococcus aureus, ATCC9144, ATCC 9144, + 4% albumin): 0.125 µg/mL; MIC (S. aureus [3]; Staphylococcus aureus, ATCC9144, ATCC 9144): ≤ 0.004 µg/mL; MIC (S. aureus [3]; Staphylococcus aureus, ATCC10390, ATCC 10390): 0.03 µg/mL (≈ 0.0662 µM); MIC (S. aureus [3]; Staphylococcus aureus, ATCC13709, ATCC 13709): 0.03 µg/mL (≈ 0.0662 µM); MIC (S. aureus [3]; Staphylococcus aureus, ATCC19636, Smith, ATCC 19636): 0.03 µg/mL (≈ 0.0662 µM); MIC (S. aureus [3]; Staphylococcus aureus, ATCC27660, ATCC 27660): 0.03 µg/mL (≈ 0.0662 µM); MIC (S. aureus [3]; Staphylococcus aureus, ATCC29213, ATCC 29213 + 50% serum): 1 µg/mL; MIC (S. aureus [3]; Staphylococcus aureus, ATCC29213, ATCC 29213): 0.03 µg/mL (≈ 0.0662 µM); MIC (S. aureus [3]; Staphylococcus aureus, ATCC 33591 / MRSA, MRSA (ATCC 33591)): 0.03 µg/mL (≈ 0.0662 µM); MIC (S. aureus [3]; Staphylococcus aureus, ATCC 33592 / MRSA, MRSA (ATCC 33592)): 0.03 µg/mL (≈ 0.0662 µM); MIC (S. aureus [3]; Staphylococcus aureus, ATCC33594, ATCC 33594): 0.03 µg/mL (≈ 0.0662 µM); MIC (S. aureus [3]; Staphylococcus aureus, ATCC49230, ATCC 49230): 0.03 µg/mL (≈ 0.0662 µM); MIC (S. aureus [3]; Staphylococcus aureus, MRSA / NRS 17 / VISA, VISA MRSA (NRS17)): 1 µg/mL (≈ 2.21 µM); MIC (S. aureus [3]; Staphylococcus aureus, MRSA / NRS 22 / USA600, USA600 MRSA GISA (NRS22)): 4 µg/mL (≈ 8.82 µM); MIC (S. aureus [3]; Staphylococcus aureus, MRSA / NRS 71, MRSA (NRS71)): 1 µg/mL (≈ 2.21 µM); MIC (S. aureus [3]; Staphylococcus aureus, MRSA / NRS 100, MRSA (COL; NRS100)): 0.03 µg/mL (≈ 0.0662 µM); MIC (S. aureus [3]; Staphylococcus aureus, MRSA / NRS 119, MRSA Linezolid-R (NRS119)): 1 µg/mL (≈ 2.21 µM); MIC (S. aureus [3]; Staphylococcus aureus, MRSA / NRS 123 / USA400, USA400 MRSA (NRS123)): 0.03 µg/mL (≈ 0.0662 µM); MIC (S. aureus [3]; Staphylococcus aureus, MRSA / NRS 127, LZD-NS MRSA (NRS127)): 4 µg/mL (≈ 8.82 µM); MIC (S. aureus [3]; Staphylococcus aureus, MRSA / NRS 269, TGC-NS MRSA (NRS269)): 2 µg/mL (≈ 4.41 µM); MIC (S. aureus [3]; Staphylococcus aureus, MRSA / NRS 271, Linezolid-R MRSA (NRS271)): 0.5 µg/mL (≈ 1.1 µM); MIC (S. aureus [3]; Staphylococcus aureus, MRSA / NRS 382 / USA100, USA100 MRSA (NRS382)): 0.5 µg/mL (≈ 1.1 µM); MIC (S. aureus [3]; Staphylococcus aureus, MRSA / NRS 383 / USA200, USA200 MRSA (NRS383)): 1 µg/mL (≈ 2.21 µM); MIC (S. aureus [3]; Staphylococcus aureus, MRSA / NRS 384 / USA300, USA300 MRSA (NRS384)): 0.03 µg/mL (≈ 0.0662 µM); MIC (S. aureus [3]; Staphylococcus aureus, MRSA / NRS 385 / USA500, USA500 MRSA (NRS385)): 0.5 µg/mL (≈ 1.1 µM); MIC (S. aureus [3]; Staphylococcus aureus, MRSA / NRS 386 / USA700, USA700 MRSA (NRS386)): 0.25 µg/mL (≈ 0.551 µM); MIC (S. aureus [3]; Staphylococcus aureus, MRSA / NRS 387 / USA800, USA800 MRSA (NRS387)): 0.03 µg/mL (≈ 0.0662 µM); MIC (S. aureus [3]; Staphylococcus aureus, MRSA / NRS 402 / VISA, VISA DAP-NS MRSA (NRS402)): 1 µg/mL (≈ 2.21 µM); MIC (S. aureus [3]; Staphylococcus aureus, MRSA / NRS 483, USA1000 MRSA (NRS483)): 0.03 µg/mL (≈ 0.0662 µM); MIC (S. aureus [3]; Staphylococcus aureus, MRSA / NRS 484, USA1100 MRSA (NRS484)): 0.03 µg/mL (≈ 0.0662 µM); MIC (S. aureus [3]; Staphylococcus aureus, MRSA / USA300, USA300 MRSA (FPR3757)): 0.5 µg/mL (≈ 1.1 µM); MIC (S. aureus [3]; Staphylococcus aureus, MRSA / USA300, USA300 MRSA (TCH1516)): 0.03 µg/mL (≈ 0.0662 µM); MIC (S. aureus [3]; Staphylococcus aureus, MRSA / USA400, USA400 MRSA (MW2)): 0.03 µg/mL (≈ 0.0662 µM); MIC (S. aureus [3]; Staphylococcus aureus, MRSA / VISA, MRSA VISA (CDC #0219)): 4 µg/mL (≈ 8.82 µM); MIC (S. aureus [3]; Staphylococcus aureus, MRSA / VISA, MRSA VISA (CDC #0220)): 1 µg/mL (≈ 2.21 µM); MIC (S. aureus [3]; Staphylococcus aureus, MRSA / VISA, MRSA VISA (CDC #0221)): 0.5 µg/mL (≈ 1.1 µM); MIC (S. aureus [3]; Staphylococcus aureus, MRSA / VISA, MRSA VISA (CDC #0223)): 1 µg/mL (≈ 2.21 µM); MIC (S. aureus [3]; Staphylococcus aureus, MRSA / VISA, MRSA VISA (CDC #0225)): 1 µg/mL (≈ 2.21 µM); MIC (S. aureus [3]; Staphylococcus aureus, MRSA / VISA, MRSA VISA (CDC #0226)): 0.03 µg/mL (≈ 0.0662 µM); MIC (S. aureus [3]; Staphylococcus aureus, MRSA / VISA, MRSA VISA (CDC #0227)): 1 µg/mL (≈ 2.21 µM)
